Data taken from article PMC7915858, “Complementary Effects of Carbamylated and Citrullinated LL37 in Autoimmunity and Inflammation in Systemic Lupus Erythematosus” (International Journal of Molecular Sciences, 2021).

Tests used:
SLE serum antibody = assay: ELISA for antibody reactivity of SLE sera to carb-/cit-/native LL37 and carb-REV, and its correlation with SLEDAI; type: binding, human
Procedure: Anti-native LL37/cit-LL37/carb-LL37 antibodies were measured as described. Briefly, 96-well flat-bottom plates (Non-Binding surface polystyrene, Corning, Glendale, AZ USA) were coated with 2 μg/mL of native LL37, cit-LL37 or carb-LL37 in carbonate buffer (0.1 M NaHCHO3, pH 9) for 2 h (or overnight) and washed four times with PBS plus 0.1% Tween-20. This washing buffer was used for washing at all steps. The blocking buffer containing 2% bovine serum albumin (BSA, Sigma) in PBS was used for at least 1 h (or overnight) to saturate unspecific binding sites. After washing, sera were diluted at various concentrations (usually at 1:100 or 1:200) in PBS + 2% BSA followed by 1 h incubation with a horseradish peroxidase–conjugated (HRP) goat anti-human IgG (Sigma-Aldrich), diluted 1:10,000 in PBS. The color was developed for 5 min with 3,3′,5,5′-tetramethylbenzidine (TMB) substrate (Sigma-Aldrich). The reaction was stopped by adding 50 μL of 2 N H2SO4 and absorbance determined at 450 nm with a reference wavelength of 540 nm. Responses were considered positive when the OD measured exceeded the mean OD values measured in healthy donors’ plasma plus two standard deviations (+2SD), calculated on the HD group values, as described.
(§1) Differences between mean values were assessed by Wilcoxon’s matched-pair signed rank test, to compare responses to antigens and control antigens in the same donor. We used Mann-Whitney test for comparison of T-cell and antibody responses between groups of patients and HD. Statistical significance was set at p < 0.05. Correlation analyses were performed by Spearman’s rank-correlation test. Data were analyzed by GraphPad Prism 7.0 or SPSS software.

SLE CD4 T-cells = assay: T-cell proliferation (BrdU incorporation, flow cytometry); type: cell-based, human
Procedure: (§2) PBMCs were purified from EDTA-treated blood, on Ficoll-Hypaque (Pharmacia Fine Chemicals, Uppsala, Sweden) and were incubated (10^5 cells/well) in 96-well-flat-bottom-microplates (BD) in T-cell-medium (RPMI 1640, 10% heat-inactivated human serum, HS, Gibco), 2 mM L-glutamine, 10 U/mL penicillin and 100 μg/mL streptomycin), with/without peptides. We performed assays on fresh cells, within 1-to-3 h from collection or on PBMCs frozen in 90% FCS−10% DMSO, whose viability we assessed by Trypan blue exclusion, with an inverted microscope. Recovery of live cells was between 65 and 85% of the frozen number. At day 3 and 5, BrdU was added (1 μg/mL). BrdU-incorporation was detected by APC-labeled anti-BrdU antibody (BD Pharmingen), after surface staining for CD4, CD3, CD8 and analyzed by flow cytometry (Gallios, BeckmanCoulter, Brea, CA, USA). Internal control for T-cell viability and proliferation was PHA treatment (2 μg/mL). SI for proliferation was calculated by dividing percent of BrdU-staining in the presence of each peptide antigen (LL37, carb-LL37, cit-LL37, LL37 reverse, REV; cit-LL37 reverse, cit-REV; carb-LL37 reverse, carb-REV) by the percent obtained in the untreated cells. SI for proliferation was considered positive when the values of percent of BrdU positive cells was three times higher than the values obtained with the control peptides (SI > 3). Assays were repeated twice with each patient. In rare cases in which background proliferation (culture with REV, cit-REV, carb-REV), exceeded antigen-specific proliferation (that is response to LL37, carb-LL37, cit-LL37), the assay was repeated three times. Concomitant phenotype analysis of LL37-responder T-cells included staining for CD3, CD4, CD8, CXCR5 (CXCR5 was assessed on BrdU/CD3/CD4-positive cells).
as §1

[1] = system: native LL37-P1-specific T-cells (HLA-DRB5*0101 tetramer); assay: Peptide-MHC-tetramer staining of T-cells after PBMC stimulation; type: cell-based, human; settings: 6 days stimulation, CD38hi CD4 T-cells
Procedure: Peptide-MHC-tetramers were from ImmunAware (Denmark). Staining was performed for 40 min with 1microL of tetramer suspension at 37 °C, followed by staining for CD4 (4 °C, 20 min), without washing. After incubation with anti-CD4 antibody, cells were washed, resuspended in PBS and kept at 4 °C. Before flow cytometry-acquisition, cells were labeled with PercP-conjugated 7-AAD to exclude dead cells. The peptide-MHC-tetramers used in this study are: the HLA-DR15-P1: tetramer of HLA-DRB1*1501 LLGDFFRKSKEKIGK (corresponding to the first aa at the NH2-term of the mature native LL37), (PE-conjugated) and the control peptide-MHC-tetramer called DR15-ctr: tetramer of HLA-DRB1*1501 […]1-169-185 (PE-conjugated). The other couple of peptide-MHC-tetramers used were HLA-DRB5*0101 loaded with the same LL37 epitope as above and the control tetramer HLA-DRB5*0101 loaded with the control epitope PVSKMRMATPLLMQA (CLIP-derived).

pDCs = assay: IFN-α production by purified pDCs stimulated with peptide-DNA complexes; type: cell-based, human; settings: peptide without DNA, 24 h, ELISA
Procedure: Buffy-coats from HD were from Centro Trasfusionale, Policlinico Umberto I, Rome, IT. After separation of mononuclear cells by Ficoll centrifugation, pDCs were purified as described, by using the Diamond Plasmacytoid Dendritic Cell Isolation Kit (Miltenyi Biotec, Bergisch Gladbach, Germany) to obtain 99% purity. Purified pDCs were seeded into 96-well round-bottom plates at 3.5/5 × 10^4 cells per well in 200 μL RPMI 1640 (GIBCO), supplemented with 10% fetal calf serum (FCS), 1% Hepes and 1% sodium pyruvate. LL37, cit-LL37 and carb-LL37 were premixed with total human genomic DNA (extracted from PBMC of HD, see below) (15 μg/mL). After 15 min incubation at room temperature the mix was added to the pDC cultures. IFN-α in supernatants was measured by ELISA (MabTech, Stockholm, Sweden), after 24 h (according to the manufacturer’s instructions).
Human DNA was extracted from PBMCs, as reported and was fragmented by sonication. Five milligrams of DNA in a volume of 300 μL were fragmented using the Sonics Vibra Cell sonicator (Newtown, CT, USA), with the following settings: 2, 4 and 10 sonication cycles (30 s on, 30 s off, in ice) to obtain DNA fragment sizes between 100 and 1000 bp. The resulting size distribution was controlled by 2% agarose gel electrophoresis.

memory B-cells = settings: cited from earlier work
Text: LL37 is able to activate innate immune cells and B-cells after forming complexes with nucleic acids in a special molecular conformation, suitable for TLR stimulation. PDCs, as well as B-cells, are both activated by LL37-DNA or LL37-RNA complexes.

SLE CD4 T-cells (CXCR5) = assay: CXCR5 (TFH marker) expression on stimulated CD4 T-cells, flow cytometry; type: cell-based, human; settings: representative plot
Text: Antibodies to CD4, CD8, CD3 conjugated with various fluorochromes (FITC, phycoerythrin (PE), peridinin-chlorophyll-protein (PerCp), allophycocyanin (APC), PE-Cy7) were from BD Biosciences or eBiosciences (San Diego, CA). For further LL37-specific T-cell characterization and B-cell characterization we used: APC-Cy7-CXCR5 (FAB190), APC or PE-CD38, CD19, CD20, CD27, antibodies, purchased from BD Biosciences, eBiosciences, Novus Biologicals (Littleton, CO), R&D (Minneapolis, MN). Appropriate isotype-matched controls were purchased from the same companies. PerCp-7-AAD was from BD Pharmingen, DAPI from Invitrogen (Thermo Fisher, Carlsbad, CA, USA).
as §2

Substance	Antibody reactivity in SLE patients with renal damage versus without renal damage (SLE serum antibody; ELISA, N=6 with and N=44 without renal damage, Mann-Whitney, Figure S3 panel a P 0.047)	Correlation of antibody reactivity with SLEDAI (SLE serum antibody; Spearman)	SLE patients responding by T-cell proliferation (SLE CD4 T-cells; BrdU, positive if SI > 3, carb-LL37 8 of 25, native LL37 17 of 31, cit-LL37 16 of 31 SLE patients) [%]	Control (Ctr-B5) tetramer positive T-cells ([1]; Ctr-B5 tetr, lower panels Figure S6) [%]	LL37-specific T-cells (LL37-B5 tetramer positive) ([1]; LL37-B5 tetr, upper panels Figure S6) [%]	IFN-α response of pDCs to peptide alone (pDCs)	Stimulation of memory B-cells to mature into plasma cells, LL37-DNA complexes (memory B-cells)	SLE patients showing an antibody response to the antigen (SLE serum antibody; ELISA, 2 μg/mL coated antigen, sera 1:100 or 1:200, OD 450 nm, positive: OD > mean HD + 2SD, carb-LL37 28 of 45, carb-REV 8 of 47 SLE patients) [%]	SLE serum antibody reactivity (OD) compared to healthy donors (SLE serum antibody; ELISA, OD, Mann-Whitney's test)	BrdU-positive CD3+CD4+ T-cells (SLE CD4 T-cells; BrdU staining, representative zebra plot, Figure S5a) [%]	CXCR5-positive cells among total CD3+CD4+ cells (SLE CD4 T-cells (CXCR5); Figure S5b left panels) [%]	CXCR5-positive cells among CD3+CD4+BrdU+ cells (SLE CD4 T-cells (CXCR5); Figure S5b middle panels) [%]	CXCR5-positive cells among CD3+CD4+BrdU- cells (SLE CD4 T-cells (CXCR5); Figure S5b right panels) [%]
LLGDFFRKSKEKIGKEFKRIVQRIKDFLRNLVPRTES [LL37, mature human cathelicidin antimicrobial peptide, COOH-terminal part (res. 134–170), purchased from Proteogenix]	non-significant anti-cit- and anti-native-LL37 antibody increase	both responses also correlated with SLEDAI	55	0.2	4.27	no IFN-α response	able to stimulate memory B-cells to mature into plasma cells	–	–	–	–	–	–
SETRPVLNRLFDK*IRQVIRKEFEK*GIK*EK*SK*RFFDGLL* [carb-REV, control carbamylated reverse (REV) LL37, reference compound]	–	–	–	–	–	–	–	17	also significant, as compared to response of HD but significantly lower than the response to carb-LL37	5.35	3.28	8.76	3.26
